Values joined by “and” are separate entries in the source; they are usually repeats but may differ in a detail not shown here. Equal values may be shown once.
Legend:
[1] = Leucocyte (cellular) drug levels 2 and 24 h after injection; format: in vivo, human; settings: for Leucocyte MMRDX levels, median: n = 6, per l cell volume
Excerpt: (§1) British Jourmal of Cancer (1998) 77(1), 139-146 ? 1998 Cancer Research Campaign Broad phase 11 and pharmacokinetic study of methoxy-morpholino doxorubicin (FCE 23762-MMRDX) in non-small-cell lung cancer, renal cancer and other solid tumour patients M Bakker', JP Droz2, AR Hanauske3, J Verweij4, AT van Oosterom5, HJM Groen', MA Pacciarini6, L Domenigoni6, F van Weissenbruch', E Pianezzola6 and EGE de Vries' 'University Hospital Groningen, The Netherlands; 2Centre L6on Berard, Lyon, France; 3Med. […] Patients received a maximum of six cycles. […] Limitations of the clinical value of anthracyclines are their toxicity profile, especially irreversible, dose-related cardiotoxicity, and intrinsic or acquired tumour resis- tance. Various mechanisms play a role in tumour cell resistance to anthracyclines, including overexpression of drug efflux pumps such as P-glycoprotein, decreased levels of the target enzyme topoisomerase II, and an increase in cellular detoxifying capacity (Kaye and Merry, 1985; Deffie et al, 1989; De Jong et al, 1990; Ford and Hait, 1990; Meijer et al, 1990; Zaman et al, 1994). The morpholinyl anthracyclines have been developed in the course of research aimed at identifying new anthracyclines with at least partially novel modes of action in addition to activity against resis- tant tumours (Acton et al, 1984). […] Box 30.001, 9700 RB Groningen, The Netherlands (Figure 1).

solid tumour patients = tested on: solid tumour patients; design: method as in Vasey et al, 1995; settings: i.v. bolus every 3 weeks, phase I study; ref Vasey et al, 1995; cited from earlier work
[2] = Plasma pharmacokinetics, cycle 1 (HPLC with fluorescence detection); format: in vivo, human
Excerpt: as §1

[3] = tested on: left ventricular ejection fraction (LVEF); experiment: Cardiac toxicity: LVEF by MUGA scan or echocardiography; format: in vivo, human
Excerpt: as §1

[4] = tested on: metastatic or unresectable solid tumour patients; experiment: Haematological toxicity (CTC grading, blood cell counts) in broad phase II study; format: in vivo, human; settings: for Cycles (%) with anaemia / Cycles (%) with leucopenia / Cycles (%) with neutropenia / Cycles (%) with thrombocytopenia: n = 126 cycles; for Median platelet nadir: 26 patients who received at least three cycles
Excerpt: as §1

[5] = tested on: solid tumours in animal models; design: method as in Grandi et al, 1990; Ripamonti et al, 1992; settings: similar activity by intraperitoneal, i.v. or oral route; ref Grandi et al, 1990; Ripamonti et al, 1992; cited from earlier work
[6] = tested on: metastatic or unresectable solid tumour patients; experiment: Non-haematological toxicity (CTC grading) in broad phase II study; format: in vivo, human; settings: for Percentage of cycles with alopecia / Percentage of cycles with diarrhoea / Percentage of cycles with fatigue/malaise / Percentage of cycles with liver toxicity, ALAT / Percentage of cycles with liver toxicity, ASAT / Percentage of cycles with nausea / Percentage of cycles with stomatitis / Percentage of cycles with vomiting / Percentage of cycles with liver toxicity, bilirubin: 132 evaluable cycles
Excerpt: as §1

[7] = Urinary excretion up to 96 h; format: in vivo, human
Excerpt: as §1

[8] = tested on: NSCLC, renal cell cancer, head and neck cancer, cervix carcinoma, ACUP; experiment: Tumour response according to WHO criteria; format: in vivo, human
Excerpt: as §1

[9] = plasma, three-compartmental model, first cycle, 11 patients, 1.5 mg m-2 i.v.
[10] = 132 cycles, 48 patients, 1.5 mg m-2 i.v. bolus every 4 weeks
[11] = CTC Grade I, 1.5 mg m-2 i.v. bolus every 4 weeks
[12] = CTC Grade II, 1.5 mg m-2 i.v. bolus every 4 weeks
[13] = CTC Grade III, 1.5 mg m-2 i.v. bolus every 4 weeks
[14] = CTC Grade IV, 1.5 mg m-2 i.v. bolus every 4 weeks
[15] = out of 131 cycles, despite intensive prophylactic antiemetic treatment

## 13-dihydro-3'-deamino-3'-[2(S)-methoxy-4-morpholinyl] doxorubicin [13-dihydro metabolite]
[1]; leucocytes
  Intracellular levels as % of total MMRDX cellular levels: ≤ 5%

## COc1cccc2c1C(=O)c1c(O)c3c(c(O)c1C2=O)C[C@@](O)(C(=O)CO)C[C@@H]3O[C@H]1C[C@H](N2CCO[C@H](OC)C2)[C@H](O)[C@H](C)O1 [MMRDX, methoxymorpholino-doxorubicin]
Solid tumour patients
  Maximum-tolerated dose: 1.5 mg m-2
[2]; epirubicin value ref Camaggi et al, 1988
  Terminal half-life relative to epirubicin t1/2,z: 1.6 fold
[2]; on the basis of AUC calculated up to infinite time
  Interindividual coefficient of variation: about 20%
[2]; plasma, 11 patients, 1.5 mg m-2 i.v.
  Plasma clearance, mean ± s.d.: 37.2 +/- 7.3 l h-1 m-2
[2]; plasma, n = 11, 1.5 mg m-2 i.v., linear trapezoidal rule
  AUC0-infinity, mean ± s.d.: 20.4 ± 6.2 µg·h/L
[2]; plasma, three-compartmental model, 11 patients, 1.5 mg m-2 i.v.
  Half-life of the first phase: 4 min
[2]; [9]
  t1/2,beta (second phase), mean ± s.d.: 2.4 h
  t1/2,gamma (third phase), mean ± s.d.: 49 h
[3]; 26 patients evaluable for cardiac toxicity
  Patients with left ventricular ejection fraction reduced >= 15%: two
[3]; one patient with head and neck cancer, after three cycles, cumulative dose 4.5 mg m-2
  Decrease in LVEF: 15%
[3]; overall conclusion of the study
  Cardiotoxicity: No clear signs of cardiotoxicity were observed
[3]; second patient (NSCLC), echocardiography, after four cycles, cumulative dose 6 mg m-2
  Decrease in LVEF: 17%
[4]; 47 patients evaluable for haematological toxicity
  Patients hospitalized for neutropenic fever: Seven
[4]; [10]
  CTC grade III/IV neutropenia, % of cycles: 27%
  CTC grade III/IV thrombocytopenia, % of cycles: 12%
[4]; [11]
  Cycles (%) with anaemia: 37%
  Cycles (%) with leucopenia: 17%
  Cycles (%) with neutropenia: 13%
  Cycles (%) with thrombocytopenia: 11%
[4]; [12]
  Cycles (%) with anaemia: 31%
  Cycles (%) with leucopenia: 23%
  Cycles (%) with neutropenia: 20%
  Cycles (%) with thrombocytopenia: 6%
[4]; [13]
  Cycles (%) with anaemia: 5%
  Cycles (%) with leucopenia: 19%
  Cycles (%) with neutropenia: 18%
  Cycles (%) with thrombocytopenia: 6%
[4]; [14]
  Cycles (%) with anaemia: 0%
  Cycles (%) with leucopenia: 6%
  Cycles (%) with neutropenia: 9%
  Cycles (%) with thrombocytopenia: 6%
[4]; Cycle 1, n=47
  Median (range) nadir haemoglobin: 110(69-147) g l-1
  Median (range) nadir leucocytes: 3.0 (0.1-9.1) x 109 l-1
  Median (range) nadir neutrophils: 1.4 (<0.1-5.8) x 109 l-1
  Median (range) nadir platelets: 178 (8-449) x 109 l-1
[4]; Cycles 2-6, n=80
  Median (range) nadir platelets: 117 (9-372) x 109 l-1
[4]; Cycles 2-6, n=81
  Median (range) nadir neutrophils: 1.7 (< 0.1-6.8) x 109 l-1
[4]; Cycles 2-6, n=82
  Median (range) nadir haemoglobin: 103 (69-153) g l-1
  Median (range) nadir leucocytes: 3.0 (0.1-9.8) x 109 l-1
[4]; cycle 1
  Median platelet nadir: 1.78e+11 L⁻¹
[4]; cycle 2
  Median platelet nadir: 1.45e+11 L⁻¹
[4]; cycle 3
  Median platelet nadir: 1.08e+11 L⁻¹
[4]; cycle 4
  Median platelet nadir: 1.06e+11 L⁻¹
[4]; cycle 5
  Median platelet nadir: 9e+10 L⁻¹
[4]; cycle 6
  Median platelet nadir: 1.17e+11 L⁻¹
[4]; day 14 of cycle 2, grade IV neutropenia
  Septic death: one
[4]; day of cycle
  Day of platelet nadir: 22 day and 22 (range 7-36) day
  Median day of neutrophil nadir: 22 day and 22 (range 6-36) day
[4]; excluding admission for blood cell transfusion
  Total number of hospital admissions for haematological toxicity: eight
[4]; in eight patients
  Cycles with dose adjustments for haematological toxicity: 19%
[4]; in vivo
  Cycles delayed for haematological toxicity: 29%
[4]; range 1-14
  Median duration of grade IV neutropenia: 7 days
[4]; range 1-20
  Median time to recovery from platelet nadir to > 100 x 109 l-1: 7 days
[4]; range 2-22
  Median time to recovery from neutrophil nadir to > 2 x 109 l-1: 7 days
[4]; range 3-19
  Median duration of grade IV thrombocytopenia: 11 days
[5]
  Effectiveness in solid tumours in animal models: as effective as doxorubicin
[6]; 132 cycles
  Late and prolonged nausea > or = grade II, % of cycles: 34%
  Vomiting > or = grade II, % of cycles: 39%
[6]; % of cycles
  Cycles with transient elevation of ALAT: 71%
  Cycles with transient elevation of ASAT: 64%
[6]; CTC Grade I
  Percentage of cycles with alopecia: 10%
  Percentage of cycles with diarrhoea: 7%
  Percentage of cycles with fatigue/malaise: 24%
  Percentage of cycles with liver toxicity, ALAT: 37%
  Percentage of cycles with liver toxicity, ASAT: 46%
  Percentage of cycles with nausea: 43%
  Percentage of cycles with stomatitis: 11%
  Percentage of cycles with vomiting: 24%
[6]; CTC Grade II
  Percentage of cycles with alopecia: 1.5%
  Percentage of cycles with diarrhoea: 1%
  Percentage of cycles with fatigue/malaise: 22%
  Percentage of cycles with liver toxicity, ALAT: 27%
  Percentage of cycles with liver toxicity, ASAT: 16%
  Percentage of cycles with liver toxicity, bilirubin: 12%
  Percentage of cycles with nausea: 27%
  Percentage of cycles with stomatitis: 1%
  Percentage of cycles with vomiting: 30%
[6]; CTC Grade III
  Percentage of cycles with diarrhoea: 1%
  Percentage of cycles with fatigue/malaise: 7%
  Percentage of cycles with liver toxicity, ALAT: 7%
  Percentage of cycles with liver toxicity, ASAT: 2%
  Percentage of cycles with liver toxicity, bilirubin: 0%
  Percentage of cycles with nausea: 7%
  Percentage of cycles with stomatitis: 1%
  Percentage of cycles with vomiting: 4%
[6]; CTC Grade IV
  Percentage of cycles with diarrhoea: 0%
  Percentage of cycles with fatigue/malaise: 5%
  Percentage of cycles with liver toxicity, ALAT: 0%
  Percentage of cycles with liver toxicity, ASAT: 0%
  Percentage of cycles with liver toxicity, bilirubin: 1%
  Percentage of cycles with stomatitis: 0%
  Percentage of cycles with vomiting: 5%
[6]; considered as drug-related
  Fatigue grade I-III, % of cycles: 53%
[6]; in vivo
  Alopecia grade I or II, % of cycles: 11%
  Cumulative liver toxicity: No cumulative liver toxicity was observed
  Cycles with CTC toxicity >= grade I of ALAT: 87 cycles
  Cycles with CTC toxicity >= grade I of ASAT: 78 cycles
  Cycles with CTC toxicity >= grade I of bilirubin: 15 cycles
  Cycles with CTC toxicity >= grade III of ALAT: nine
  Cycles with CTC toxicity >= grade III of ASAT: two
  Cycles with CTC toxicity >= grade III of bilirubin: one
  Grade I-II diarrhoea, % of cycles: 8%
  Grade I-II stomatitis, % of cycles: 11%
  Local phlebitis at the injection site, renal toxicity, neurotoxicity: Neither local phlebitis at the injection site nor renal or neuro- toxicity were observed
  Median day of onset of nausea: 3 (range 1-17) day
  Median day of onset of vomiting: 3 (range 1-22) day
  Patients hospitalized for nausea/vomiting: Five
[6]; in vivo, iv
  Nausea and vomiting grade III-IV, % of cycles: 9%
[6]; lasting approximately one week
  Day of maximum transient elevations of ASAT and ALAT: 8 days
[6]; only one grade II
  Patients with alopecia grade I or II: Nine
[6]; [15]
  Cycles with nausea: 100 cycles
  Cycles with vomiting: 82 cycles
[6]; printed '> grade III/IV', 132 cycles
  Transient transaminases elevation grade III/IV, % of cycles: 7%
[6]; range 1-7
  Median hospitalization duration for nausea/vomiting: 4 days
[6]; range 1-28
  Median duration of vomiting: 3 days
[6]; range 1-38
  Median duration of nausea: 7 days
[6]; range 8-26
  Median day of recovery of ASAT to normal values: 15 days
[6]; range 8-36
  Median day of recovery of ALAT to normal values: 15 days
[7]; in vivo
  Renal clearance: about 1.8 l h-1
[7]; urine collection up to 96 h, nine patients
  Urinary excretion of the unchanged drug, % of the administered dose: 2%
[8]; NSCLC (20 evaluable patients) and renal cell cancer (18 evaluable patients)
  Efficacy in NSCLC and renal cell cancer: ineffective
[8]; NSCLC patient with retroperitoneal metastases, forty-three patients evaluable for tumour response
  Patients with partial response: One
[8]; forty-three patients evaluable
  Patients with progressive disease: Twenty-five
  Patients with stable disease: 17 patients
[8]; one NSCLC patient
  Duration of partial response: 17 weeks
[1]; 2 h after infusion
  Mean leucocyte concentration relative to corresponding plasma concentration: 650 fold
  Leucocyte MMRDX levels, median: 414 µg/L
[1]; 24 h after infusion
  Mean leucocyte concentration relative to corresponding plasma concentration: 400 fold
  Leucocyte MMRDX levels, median: 174 µg/L

Source: paper PMC2151269, “Broad phase II and pharmacokinetic study of methoxy-morpholino doxorubicin (FCE 23762-MMRDX) in non-small-cell lung cancer, renal cancer and other solid tumour patients” (British Journal of Cancer, 1998)
